Laboratory results published in US10512696B2, “Nanoscale platinum compounds and methods of use thereof” (priority 2009, dated 2019).

Columns and labels:
[1] = system: 4T1 breast cancer cells; experiment: Liponanoparticle cell viability MTS assay, 4T1; assay type: cell-based; settings: three time points
Description: In a 96 well plate, 2×10^3 cells were plated. After 4 h, cells were treated with different concentrations of free drug or lipo-nanoparticles. Cells without any treatment were kept as control. […]

[2] = system: Lewis lung cancer cell line (LLC); experiment: Liponanoparticle cell viability MTS assay, LLC; assay type: cell-based
Description: (§1) In a 96 well plate, 2×10^3 cells were plated. After 4 h, cells were treated with different concentrations of free drug or lipo-nanoparticles. Cells without any treatment were kept as control. After 48 h, cell viability was assessed using standard MTS assay according to manufacturer's instructions.

[3] = system: cisplatin-resistant cancer cell line (CP20); experiment: Liponanoparticle cell viability MTS assay, CP20; assay type: cell-based
Description: as §1

[4] = system: Lewis Lung Carcinoma cell lines (LLC); experiment: MTS cell viability assay, LLC cells; assay type: cell-based, murine; settings: for EC50: cisplatin-equivalent concentration; for IC50: 48 hours post-incubation, read-out: IC50 (LLC cell kill)
Source text: The absorbance reflects the number of surviving cells.

[5] = system: K-ras LSL/+ /Pten fl/fl ovarian adenocarcinomas; experiment: In vivo murine ovarian cancer tumor model (bioluminescence); set-up: species or system mice
Description: Ovarian adenocarcinomas were induced in genetically-engineered K-ras^LSL/+/Pten^fl/fl mice via intrabursal delivery of adenovirus carrying Cre recombinase, as described previously. Tumor cells were engineered to express luciferase once activated by Adeno-Cre, in order to make tumor imaging feasible before and after drug treatment.
Statistical analysis of the toxicity data was analyzed using a one-way ANOVA test with the Prism 5™ software.

[6] = system: Lewis lung carcinoma
Description: (§2) The LLC Lung Cancer cells and 4T1 Breast Cancer cells ([…]) were implanted subcutaneously in the flanks of 4-week-old C57/BL6 and BALB/c mice (weighing 20 g, Charles River Laboratories, MA) respectively. The drug therapy was started after the tumors attained volume of 50 mm^3. […] PBS (100 μL) administered by tail-vein injection was used as a control for drug treatment. The tumor volumes and body weights were monitored on a daily basis. The animals were sacrificed when the average tumor size of the control exceeded 2000 mm^3 in the control group. The tumors were harvested immediately following sacrifice and stored in 10% formalin for further analysis. All animal procedures were approved by Harvard institutional IUCAC.
(§3) The tissues were fixed in 10% formalin, paraffin embedded, sectioned and stained with H&E at the Harvard Medical School Core Facility. Tumor and Kidney paraffin sections were deparaffinized and stained with standard TMR-red fluorescent terminal deoxynucleotidyl transferase-mediated dUTP nick end labeling (TUNEL) kit following the manufacturer's protocol (In Situ Cell Death Detection Kit, TMR Red, Roche). Images were obtained using a Nikon Eclipse TE2000 fluorescence microscope equipped with red filter.
(§4) Body weights were recorded daily to assess toxicity. In addition, livers and spleens were removed at the end of treatment to record weights and perform extensive pathological examination to assess toxicity of vital organs. Cell apoptosis in vital organs was measured using TUNNEL assay. Statistical analysis of the toxicity data was performed using a two-way ANOVA test with the Prism 5™ software.

[7] = system: 4T1 breast cancer; settings: mouse, in vivo
Description: as §2, §3, §4

Compound | effect on viability of 4T1 breast cancer cells [1] | effect on viability of LLC cells [2] | effect on viability of CP20 cells [3] | EC50 ([4]; LLC cells, 48 h) | IC50 ([4]; LLC cells) | apoptosis in the kidney (TUNEL) ([5]; 3 mg/kg or equivalent Pt concentration) | body weight ([5]; daily recording) | effect on LLC cell viability ([4]; 48 h) | concentration for complete cell kill ([4]; LLC cells) | tumor growth inhibition ([6]; dose equivalent to 1.25 mg/kg of cisplatin, three doses i.v.) | apoptosis in kidney (TUNEL) ([6]; mouse, in vivo) | apoptosis in tumor (TUNEL) ([6]; mouse, in vivo) | kidney H&E pathology ([6]; mouse, in vivo) | tumor inhibition, dose dependence ([6]; three doses i.v., 1.25 and 3 mg/kg) | apoptosis in the kidney [7]
N.N.O=C([O-])C1(C(=O)[O-])CCC1.[Pt+2] [Carboplatin, cis-Diammine-(1,1-cyclobutanedicarboxylato) platinum(II)] | least effective of all platinates tested | no effect at this concentration range | no effect at this concentration range | 14.8 ± 0.38 µM | 14.8 ± 0.38 µM | – | – | – | – | – | – | – | – | – | –
N.N.[Cl][Pt][Cl] [Cisplatin, cis-dichlorodiammineplatinum(II)] | – | – | only at the highest concentration | 3.87 ± 0.37 µM | 3.87 ± 0.37 µM | significant apoptosis in the kidney | significant loss of body weight | identical cell kill | greater than 20 uM | only a minor tumor growth inhibition | significant apoptosis | significant induction of apoptosis | significant tubular necrosis | dose-dependent tumor inhibition | significant apoptosis in the kidney
